Here are results for two compounds from US20240025892A1 (priority 2020, published 2024).

Entries after “also recorded” stand apart in the source; their conditions may differ.

For data set [1], the target named is NanoLuc-SIK2 fusion in HEK293 cells (Homo sapiens (Human), UniProt Q9H0K1). As to the kind of experiment: cell-based. The following applies: HEK293 cells, compounds for 60 minutes; read-out: SIK2 NanoBRET. On the procedure:
Assays were performed at Reaction Biology Corporation (Malvern, PA) in HEK293 cells from ATCC in 384 well plate format using Promega's NanoBRET TE intracellular kinase assay platform. HEK293 cells transiently expressing NanoLuc-SIK2 fusion vector were seeded into 384 well plates. Cells were pre-treated with the NanoBRET Tracer K-4 and then treated with compounds for 60 minutes in 10 point dose response format. […] IC50 values were calculated and IC50 curves were plotted using the GraphPad Prism 4 program on a sigmoidal dose response equation.
For orientation: In BRET a luciferase serves as donor, and the signal depends on an acceptor being close.

The next data set has as its target SIK1 (Homo sapiens (Human), UniProt P57059). As to the kind of experiment: In vitro SIK1 kinase assay. It counts as biochemical. On the procedure: (§1) Assays were performed in base reaction buffer (20 mM Hepes (pH 7.5), 10 mM MgCl2, 1 mM EGTA, 0.02% Brij35, 0.02 mg/mL BSA, 0.1 mM Na3VO4, 2 mM DTT, 1% DMSO). Compounds were dissolved in 100% DMSO in a 10 mM stock. […] Assays were performed for 20 minutes at room temperature, after which time ^33P-ATP (10 μCi/μL) was added followed by incubation for another 120 minutes at room temperature. Thereafter, radioactivity incorporated into the pEY peptide substrate was detected by filter-binding method. Kinase activity data were expressed as the percent remaining kinase activity in test samples compared to DMSO reactions. IC50 values and curve fits were obtained using Prism (GraphPad Software).

For a further data set, the system named is CRTC2 (TORC2). As to the kind of experiment: CRTC2 nuclear translocation (PathHunter U2OS). It counts as cell-based. The following applies: maximal CRTC2 nuclear translocation, U2OS cells, 90 minutes, maximum dose 10 μM. Put shortly: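 U2OS enzyme-fragment complementation cells (ED-tagged CRTC2, EA-tagged nuclear TAZ domain) treated 90 minutes, duplicate 5-point 4-fold dilutions from 10 μM. Chemiluminescent substrate signal; maximal translocation expressed as percent of forskolin-stimulated signal.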

Another data set has as its target Recombinant SIK2 (Homo sapiens (Human), UniProt Q9H0K1). As to the kind of experiment: biochemical. Particulars: recombinant SIK2 2.5 nM, 1 μM ATP; read-out: SIK2 IC50.
For a further data set, the target named is SIK3 (Homo sapiens (Human), UniProt Q9Y2K2). Briefly: In vitro SIK3 kinase assay. The class given is biochemical. The protocol:
as §1

For another data set, the system named is RANKL. As to the kind of experiment: RANKL gene expression in Ocy454 cells (RT-qPCR).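 Also: Ocy454 cells moved to 37 °C for osteocytic differentiation before compound exposure, RANKL mRNA by SYBR Green qRT-PCR, 2^−ΔΔCT with β-actin normalization, duplicate wells.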 The following applies: maximal RANKL fold induction versus DMSO, four hours. (In general: Quantitative PCR measures a nucleic acid by following its amplification.)
The subject of data set [2] is 12 week old female C57B6 mice, sham or OVX. Briefly: Ovariectomy (OVX) mouse model of post-menopausal osteoporosis. The class given is in vivo. From the text: Recent reports have described the signaling pathway used by PTH in target cells in bone (see e.g., Wein et al, Nature Communications, 2016, 7:13176; Wein et al, Trends Endocrinol Metab. 2018; and Nishimori et al, J. Clin. Invest. 2019). One step in this cascade is that PTH signaling leads to PKA-dependent inhibition of salt inducible kinases (SIKs). Small molecule SIK inhibitors, such as YKL-05-099 (see e.g., Sundberg et al, ACS chemical biology, 2016; and Tarumoto et al, Blood, 2019), a tool compound that inhibits all 3 SIK isoforms, mimic the actions of PTH (see e.g., Wein et al, Nature Communications, 2016, 7:13176). The efficacy of YKL-05-099 has been tested in mice rendered hypo-gonadal by surgical removal of the ovaries, a model of post-menopausal osteoporosis. […] Therefore, mice were generated where SIK2/3 can be deleted ubiquitously in a tamoxifen-dependent manner to assess the safety and skeletal efficacy of selective SIK2/3 deletion in adult animals.

The mark [3] stands for this setting: mice, YKL-05-099 18 mg/kg once daily for 4 weeks.

Chain of Recombinant SIK2 (Q9H0K1 whole entry): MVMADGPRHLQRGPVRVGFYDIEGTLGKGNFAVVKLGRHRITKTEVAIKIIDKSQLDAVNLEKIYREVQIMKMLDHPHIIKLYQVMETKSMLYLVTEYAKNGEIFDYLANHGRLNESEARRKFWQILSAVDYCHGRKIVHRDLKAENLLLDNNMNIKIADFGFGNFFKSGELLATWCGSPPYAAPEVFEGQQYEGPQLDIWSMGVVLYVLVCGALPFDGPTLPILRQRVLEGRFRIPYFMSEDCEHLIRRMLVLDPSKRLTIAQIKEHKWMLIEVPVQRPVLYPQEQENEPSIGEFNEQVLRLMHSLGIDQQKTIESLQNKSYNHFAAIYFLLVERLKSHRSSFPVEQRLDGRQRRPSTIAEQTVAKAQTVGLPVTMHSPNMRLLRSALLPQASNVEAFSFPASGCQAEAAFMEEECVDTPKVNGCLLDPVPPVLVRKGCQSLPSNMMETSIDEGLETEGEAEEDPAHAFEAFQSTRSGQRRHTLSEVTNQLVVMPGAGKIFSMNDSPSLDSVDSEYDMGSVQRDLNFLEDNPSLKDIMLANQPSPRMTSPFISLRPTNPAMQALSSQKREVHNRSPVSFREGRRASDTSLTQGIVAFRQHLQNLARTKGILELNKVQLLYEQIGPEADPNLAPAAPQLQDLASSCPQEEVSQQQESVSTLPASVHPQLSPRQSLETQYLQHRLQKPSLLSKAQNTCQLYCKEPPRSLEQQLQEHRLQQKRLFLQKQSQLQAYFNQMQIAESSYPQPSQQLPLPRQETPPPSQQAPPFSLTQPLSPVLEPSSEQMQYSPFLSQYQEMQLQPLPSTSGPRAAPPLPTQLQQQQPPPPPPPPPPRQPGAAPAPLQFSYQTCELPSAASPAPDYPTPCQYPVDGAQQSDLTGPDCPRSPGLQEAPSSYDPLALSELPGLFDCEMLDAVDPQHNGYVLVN
Chain of NanoLuc-SIK2 fusion in HEK293 cells (Q9H0K1 whole entry, the tested form may be a part): as the sequence (Q9H0K1 whole entry) above
Chain of SIK1 (P57059 whole entry): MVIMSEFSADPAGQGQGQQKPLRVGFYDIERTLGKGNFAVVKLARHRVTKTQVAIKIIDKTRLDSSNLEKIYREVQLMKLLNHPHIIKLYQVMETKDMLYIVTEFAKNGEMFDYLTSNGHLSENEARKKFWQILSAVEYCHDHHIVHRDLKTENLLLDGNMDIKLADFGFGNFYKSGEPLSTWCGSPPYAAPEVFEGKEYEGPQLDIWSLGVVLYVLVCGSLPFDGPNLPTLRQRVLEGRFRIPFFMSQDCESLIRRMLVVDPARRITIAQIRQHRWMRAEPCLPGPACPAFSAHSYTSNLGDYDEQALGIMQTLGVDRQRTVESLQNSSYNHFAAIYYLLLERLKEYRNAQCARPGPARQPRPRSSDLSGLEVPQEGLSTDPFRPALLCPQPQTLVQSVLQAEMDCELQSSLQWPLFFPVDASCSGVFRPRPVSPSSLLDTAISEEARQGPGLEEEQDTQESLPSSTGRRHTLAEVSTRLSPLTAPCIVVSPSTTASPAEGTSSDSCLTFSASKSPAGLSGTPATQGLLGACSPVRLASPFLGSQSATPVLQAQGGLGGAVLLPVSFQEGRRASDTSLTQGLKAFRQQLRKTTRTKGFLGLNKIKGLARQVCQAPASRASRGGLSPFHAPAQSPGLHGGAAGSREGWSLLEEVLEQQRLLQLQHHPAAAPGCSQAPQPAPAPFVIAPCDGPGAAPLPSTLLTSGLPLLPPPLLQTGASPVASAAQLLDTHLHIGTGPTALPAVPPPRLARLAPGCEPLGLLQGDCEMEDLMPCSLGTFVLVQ
Chain of SIK3 (Q9Y2K2 whole entry): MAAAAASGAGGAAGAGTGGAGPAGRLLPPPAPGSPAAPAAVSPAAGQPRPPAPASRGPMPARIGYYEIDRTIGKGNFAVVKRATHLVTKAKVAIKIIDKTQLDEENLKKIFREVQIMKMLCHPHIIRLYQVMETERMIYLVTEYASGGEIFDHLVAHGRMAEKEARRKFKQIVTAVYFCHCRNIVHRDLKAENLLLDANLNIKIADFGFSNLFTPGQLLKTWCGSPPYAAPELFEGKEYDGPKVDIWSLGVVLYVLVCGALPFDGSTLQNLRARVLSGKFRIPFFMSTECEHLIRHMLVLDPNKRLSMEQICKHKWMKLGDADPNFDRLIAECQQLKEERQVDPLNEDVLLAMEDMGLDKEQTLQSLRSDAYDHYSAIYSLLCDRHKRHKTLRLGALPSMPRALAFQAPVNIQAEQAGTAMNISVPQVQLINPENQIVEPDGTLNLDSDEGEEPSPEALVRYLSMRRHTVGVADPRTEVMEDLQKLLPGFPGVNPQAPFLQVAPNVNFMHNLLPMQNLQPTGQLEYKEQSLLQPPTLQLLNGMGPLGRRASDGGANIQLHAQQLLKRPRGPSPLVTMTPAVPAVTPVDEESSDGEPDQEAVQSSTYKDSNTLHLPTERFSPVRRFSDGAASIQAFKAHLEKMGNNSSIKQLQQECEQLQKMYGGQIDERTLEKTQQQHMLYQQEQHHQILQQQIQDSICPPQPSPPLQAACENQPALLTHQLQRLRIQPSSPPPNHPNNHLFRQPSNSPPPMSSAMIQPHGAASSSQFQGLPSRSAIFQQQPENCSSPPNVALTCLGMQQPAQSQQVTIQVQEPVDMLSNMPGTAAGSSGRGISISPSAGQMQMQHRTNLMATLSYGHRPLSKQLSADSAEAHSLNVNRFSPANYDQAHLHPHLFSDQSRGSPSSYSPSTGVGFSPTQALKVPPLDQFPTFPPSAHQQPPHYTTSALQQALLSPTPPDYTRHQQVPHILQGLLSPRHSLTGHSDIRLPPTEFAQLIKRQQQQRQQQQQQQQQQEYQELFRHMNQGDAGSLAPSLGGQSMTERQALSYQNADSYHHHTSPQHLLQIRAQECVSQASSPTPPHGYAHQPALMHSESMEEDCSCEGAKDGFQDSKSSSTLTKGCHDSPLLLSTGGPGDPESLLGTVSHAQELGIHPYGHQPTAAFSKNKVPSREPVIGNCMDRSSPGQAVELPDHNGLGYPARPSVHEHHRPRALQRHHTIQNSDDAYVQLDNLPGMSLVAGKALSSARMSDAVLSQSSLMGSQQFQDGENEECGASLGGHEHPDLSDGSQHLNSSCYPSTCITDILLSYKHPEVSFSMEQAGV

Consider `N#Cc1ccc(-c2cnc3cc(-c4cnn(C5CC5)c4)ccn23)cc1` [Example 49, 4-(7-(1-cyclopropyl-1H-pyrazol-4-yl)imidazo[1,2-a]pyridin-3-yl)benzonitrile], for which the IC50 in data set [1] is 1.36 nM; against SIK1, 2.16 nM; on Recombinant SIK2 it was 0.101 nM; against SIK3 it was 1.43 nM. Also, in the data set on CRTC2 (TORC2), the “CRTC2 Efficacy (% of forskolin)” value was 92.2 % of forskolin. In the data set with RANKL, the “RANKL Fold Induction” value worked out at 6.31 fold.
As to `COc1ccc(N2C(=O)N(c3c(C)cccc3Cl)Cc3cnc(Nc4ccc(C5CCN(C)CC5)cc4OC)nc32)nc1` [YKL-05-099], the “bone density / bone mass and bone formation” value in data set [2] (OVX mice, once daily for 4 weeks, PTH 100 mcg/d, YKL-05-099 18 mg/kg) is “comparable/superior efficacy; also recorded: increase bone density and bone formation rate”. In data set [2] (setting [3]), the “BUN levels / renal function” value was “impaired renal function; also recorded: increased” and the fasting glucose entry was “hyper-glycemia; also recorded: increased”.
